Data taken from ChEMBL document CHEMBL3612057, “Discovery of indolizines containing triazine moiety as new leads for the development of antitumoral agents targeting mitotic events” (2015).
Active and inactive are the calls of the source. The rule behind the calls is not given here.

Key:
RPMI-8226 = experiment: Cytotoxicity against human RPMI8226 cells assessed as growth inhibition at 10 uM after 24 hrs by SRB assay; type: functional
MDA-MB-435 = experiment: Cytotoxicity against human MDA-MB-435 cells assessed as growth inhibition at 10 uM after 24 hrs by SRB assay; type: functional
SR = experiment: Cytotoxicity against human SR cells assessed as growth inhibition at 10 uM after 24 hrs by SRB assay; type: functional
ACHN = experiment: Cytotoxicity against human ACHN cells assessed as growth inhibition at 10 uM after 24 hrs by SRB assay; type: functional
HOP-92 = experiment: Cytotoxicity against human HOP92 cells assessed as growth inhibition at 10 uM after 24 hrs by SRB assay; type: functional
SK-MEL-5 = experiment: Cytotoxicity against human SK-MEL-5 cells assessed as growth inhibition at 10 uM after 24 hrs by SRB assay; type: functional
SK-OV-3 = experiment: Cytotoxicity against human SKOV3 cells assessed as growth inhibition at 10 uM after 24 hrs by SRB assay; type: functional
CCRF-CEM = experiment: Cytotoxicity against human CCRF-CEM cells assessed as growth inhibition at 10 uM after 24 hrs by SRB assay; type: functional
MCF7 = experiment: Cytotoxicity against human MCF7 cells assessed as growth inhibition at 10 uM after 24 hrs by SRB assay; type: functional
A549 = experiment: Cytotoxicity against human A549 cells assessed as growth inhibition at 10 uM after 24 hrs by SRB assay; type: functional
MDA-MB-231 = experiment: Cytotoxicity against human MDA-MB-231 cells assessed as growth inhibition at 10 uM after 24 hrs by SRB assay; type: functional
CAKI-1 = experiment: Cytotoxicity against human CAKI-1 cells assessed as growth inhibition at 10 uM after 24 hrs by SRB assay; type: functional
UACC-62 = experiment: Cytotoxicity against human UACC62 cells assessed as growth inhibition at 10 uM after 24 hrs by SRB assay; type: functional
HOP-62 = experiment: Cytotoxicity against human HOP62 cells assessed as growth inhibition at 10 uM after 24 hrs by SRB assay; type: functional
NCI-H522 = experiment: Cytotoxicity against human NCI-H522 cells assessed as growth inhibition at 10 uM after 24 hrs by SRB assay; type: functional
HCT-116 = experiment: Cytotoxicity against human HCT116 cells assessed as growth inhibition at 10 uM after 24 hrs by SRB assay; type: functional
NCI-H460 = experiment: Cytotoxicity against human NCI-H460 cells assessed as growth inhibition at 10 uM after 24 hrs by SRB assay; type: functional
T47D = experiment: Cytotoxicity against human T47D cells assessed as growth inhibition at 10 uM after 24 hrs by SRB assay; type: functional
786-0 = experiment: Cytotoxicity against human 786-0 cells assessed as growth inhibition at 10 uM after 24 hrs by SRB assay; type: functional
OVCAR-4 = experiment: Cytotoxicity against human OVCAR4 cells assessed as growth inhibition at 10 uM after 24 hrs by SRB assay; type: functional
Hs-578T = experiment: Cytotoxicity against human Hs578T cells assessed as growth inhibition at 10 uM after 24 hrs by SRB assay; type: functional
HL-60(TB) = experiment: Cytotoxicity against human HL-60(TB) cells assessed as growth inhibition at 10 uM after 24 hrs by SRB assay; type: functional
U-251 = experiment: Cytotoxicity against human U251 cells assessed as growth inhibition at 10 uM after 24 hrs by SRB assay; type: functional
PC-3 = experiment: Cytotoxicity against human PC3 cells assessed as growth inhibition at 10 uM after 24 hrs by SRB assay; type: functional
RXF 393 = experiment: Cytotoxicity against human RXF393 cells assessed as growth inhibition at 10 uM after 24 hrs by SRB assay; type: functional
UACC-257 = experiment: Cytotoxicity against human UACC257 cells assessed as growth inhibition at 10 uM after 24 hrs by SRB assay; type: functional
NCI-H226 = experiment: Cytotoxicity against human NCI-H226 cells assessed as growth inhibition at 10 uM after 24 hrs by SRB assay; type: functional
TK-10 = experiment: Cytotoxicity against human TK10 cells assessed as growth inhibition at 10 uM after 24 hrs by SRB assay; type: functional
OVCAR-3 = experiment: Cytotoxicity against human OVCAR3 cells assessed as growth inhibition at 10 uM after 24 hrs by SRB assay; type: functional
NCI/ADR-RES = experiment: Cytotoxicity against human NCI/ADR-RES cells assessed as growth inhibition at 10 uM after 24 hrs by SRB assay; type: functional
K562 = experiment: Cytotoxicity against human K562 cells assessed as growth inhibition at 10 uM after 24 hrs by SRB assay; type: functional
Ovis aries = species on record: Ovis aries; experiment: Inhibition of sheep tubulin polymerization at 100 uM by fluorescence assay
SK-MEL-28 = experiment: Cytotoxicity against human SK-MEL-28 cells assessed as growth inhibition at 10 uM after 24 hrs by SRB assay; type: functional
OVCAR-8 = experiment: Cytotoxicity against human OVCAR8 cells assessed as growth inhibition at 10 uM after 24 hrs by SRB assay; type: functional
Malme-3M = experiment: Cytotoxicity against human MALME-3M cells assessed as growth inhibition at 10 uM after 24 hrs by SRB assay; type: functional; conditions: read-out: GI
SNB-75 = experiment: Cytotoxicity against human SNB75 cells assessed as growth inhibition at 10 uM after 24 hrs by SRB assay; type: functional
SF-295 = experiment: Cytotoxicity against human SF295 cells assessed as growth inhibition at 10 uM after 24 hrs by SRB assay; type: functional
SF-539 = experiment: Cytotoxicity against human SF539 cells assessed as growth inhibition at 10 uM after 24 hrs by SRB assay; type: functional

COc1nc(OC)nc(-c2cc(C(=O)c3cc(OC)c(OC)c(OC)c3)n3ccccc23)n1
growth inhibition (GI) (RPMI-8226): inactive | inhibition of growth at 10 µM (MDA-MB-435; MDA-MB-435, 24 h, read-out: GI): 35% | inhibition of growth at 10 µM (SR; read-out: GI): 20% | growth inhibition (GI) (ACHN): inactive | growth inhibition (GI) (HOP-92): inactive | growth inhibition (GI) (SK-MEL-5): inactive | growth inhibition (GI) (SK-OV-3): inactive | growth inhibition (GI) (CCRF-CEM): inactive | growth inhibition (GI) (MCF7): inactive | growth inhibition (GI) (A549): inactive | growth inhibition (GI) (MDA-MB-231): inactive | growth inhibition (GI) (CAKI-1): inactive | growth inhibition (GI) (UACC-62): inactive | growth inhibition (GI) (HOP-62): inactive | growth inhibition (GI) (NCI-H522): inactive | growth inhibition (GI) (HCT-116): inactive | growth inhibition (GI) (NCI-H460): inactive | growth inhibition (GI) (T47D): inactive | growth inhibition (GI) (786-0): inactive | growth inhibition (GI) (OVCAR-4): inactive | growth inhibition (GI) (Hs-578T): inactive | growth inhibition (GI) (HL-60(TB)): inactive | growth inhibition (GI) (U-251): inactive | growth inhibition (GI) (PC-3): inactive | growth inhibition (GI) (RXF 393): inactive | growth inhibition (GI) (UACC-257): inactive | growth inhibition (GI) (NCI-H226): inactive | growth inhibition (GI) (TK-10): inactive | growth inhibition (GI) (OVCAR-3): inactive | growth inhibition (GI) (NCI/ADR-RES): inactive | inhibition of growth at 10 µM (K562; K562, 24 h, read-out: GI): 10% | inhibition (Ovis aries): inactive | growth inhibition (GI) (SK-MEL-28): inactive | growth inhibition (GI) (OVCAR-8): inactive | inhibition of growth at 10 µM (Malme-3M): 11% | growth inhibition (GI) (SNB-75): inactive | growth inhibition (GI) (SF-295): inactive | growth inhibition (GI) (SF-539): inactive

COc1nc(OC)nc(-c2cc(C(=O)c3ccc(Br)cc3)n3ccc(C)cc23)n1
growth inhibition (GI) (RPMI-8226): inactive | growth inhibition (GI) (MDA-MB-435): inactive | growth inhibition (GI) (SR): inactive | growth inhibition (GI) (ACHN): inactive | growth inhibition (GI) (HOP-92): inactive | growth inhibition (GI) (SK-MEL-5): inactive | growth inhibition (GI) (SK-OV-3): inactive | growth inhibition (GI) (CCRF-CEM): inactive | inhibition of growth at 10 µM (MCF7; MCF7, 24 h, read-out: GI): 38% | growth inhibition (GI) (A549): inactive | growth inhibition (GI) (MDA-MB-231): inactive | growth inhibition (GI) (CAKI-1): inactive | growth inhibition (GI) (UACC-62): inactive | growth inhibition (GI) (HOP-62): inactive | growth inhibition (GI) (NCI-H522): inactive | growth inhibition (GI) (HCT-116): inactive | growth inhibition (GI) (NCI-H460): inactive | growth inhibition (GI) (T47D): inactive | growth inhibition (GI) (786-0): inactive | inhibition of growth at 10 µM (OVCAR-4; OVCAR-4, 24 h, read-out: GI): 95% | growth inhibition (GI) (Hs-578T): inactive | growth inhibition (GI) (HL-60(TB)): inactive | growth inhibition (GI) (U-251): inactive | growth inhibition (GI) (PC-3): inactive | inhibition of growth at 10 µM (UACC-257; UACC-257, 24 h, read-out: GI): 31% | growth inhibition (GI) (NCI-H226): inactive | growth inhibition (GI) (TK-10): inactive | growth inhibition (GI) (OVCAR-3): inactive | growth inhibition (GI) (NCI/ADR-RES): inactive | growth inhibition (GI) (K562): inactive | inhibition (Ovis aries): inactive | inhibition of growth at 10 µM (SK-MEL-28; SK-MEL-28, 24 h, read-out: GI): 30% | growth inhibition (GI) (OVCAR-8): inactive | inhibition of growth at 10 µM (Malme-3M): 73% | growth inhibition (GI) (SNB-75): inactive | inhibition of growth at 10 µM (SF-295; SF-295, 24 h, read-out: GI): 20% | growth inhibition (GI) (SF-539): inactive
